# Measurements published in ChEMBL document CHEMBL4033766, “Discovery of the Antitumor Effects of a Porphyrazine Diol (Pz 285) in MDA-MB-231 Breast Tumor Xenograft Models in Mice” (ACS Med Chem Lett, 2017).
# Calls of active or inactive are those of the source. The calls are words filed in the database; no cut-off is given here.
# Experiments:
# [1] = Antitumor activity against Her2-positive human MDA-MB-231-LM24 cells xenografted in SCID-beige mouse harboring Td-tomato and Luc2 assessed as survival days at 2.5 mg/kg, iv administered every 7 days for 28 days (reference value: 9.5 days); type: functional
# [2] = Antitumor activity against Her2-positive human MDA-MB-231-LM24 cells xenografted in SCID-beige mouse harboring Td-tomato and Luc2 assessed as survival days at 1.25 mg/kg, iv administered every 7 days for 28 days (reference value: 9.5 days); type: functional
# [3] = Antiproliferative activity against human MDA-MB-231-LM24 cells after 48 hrs by MTS assay; type: functional, cell-based; conditions: MDA-MB-231-LM24, 48 h
# MDA-MB-231 = assay: Antiproliferative activity against human MDA-MB-231 cells at 25 uM after 48 hrs by MTS assay relative to control; type: functional
# [4] = Antitumor activity against Her2-positive human MDA-MB-231-LM24 cells xenografted in SCID-beige mouse harboring Td-tomato and Luc2 assessed as tumor growth inhibition at 2.5 mg/kg, iv administered every 7 days for 28 days relative to control; type: functional; conditions: MDA-MB-231-LM24, iv, read-out: TGI
# MDA-MB-231-LM24 = assay: Antimetastatic activity against Her2-positive human MDA-MB-231-LM24 cells xenografted in SCID-beige mouse harboring Luc2 assessed as reduction in tumor burden in lung at 2.5 mg/kg, iv administered every 7 days for 2 weeks by bioluminescence analysis; type: functional, organism-based
SMILES,Survival [1] [days],Survival [2] [days],IC50 [3] [µM],Activity (MDA-MB-231),inhibition in vivo at 2.5 mg/kg [4] [%],Activity (MDA-MB-231-LM24)
COc1cccc2c1C(=O)c1c(O)c3c(c(O)c1C2=O)C[C@@](O)(C(=O)CO)C[C@@H]3O[C@H]1C[C@H](N)[C@H](O)[C@H](C)O1 [DOXORUBICIN],14,20,–,–,–,–
CO[C@]1(C)OC2=C(O[C@@]1(C)OC)c1nc2nc2[nH]c(nc3nc(nc4[nH]c(n1)c1c4O[C@@](C)(OC)[C@](C)(OC)O1)-c1c(OCCO)ccc(OCCO)c1-3)c1c2O[C@@](C)(OC)[C@](C)(OC)O1,22.5,–,15,40%,> 65,Active
CO[C@]1(C)OC2=C(O[C@@]1(C)OC)c1nc2nc2[nH]c(nc3nc(nc4[nH]c(n1)c1c4O[C@@](C)(OC)[C@](C)(OC)O1)C1=C3O[C@@](C)(OC)[C@](C)(OC)O1)c1c2O[C@@](C)(OC)[C@](C)(OC)O1,–,–,–,inactive,–,–
